Tests used:
[1] = reversed-phase LC retention time (C18, 15 min MeOH gradient); higher = more hydrophobic / later elution
[2] = collision cross section (TIMS, N2 drift gas) of the primary ion; higher = larger gas-phase ion size
[3] = ionization mode: ESI+, ion species: [M+H]+
[4] = ionization mode: ESI-, ion species: [M-H]-
[5] = ionization mode: ESI+, ion species: [M]+

Compound: C#CC(C)(C)NC(=O)c1cc(Cl)cc(Cl)c1 [Propyzamide]
- reversed-phase LC retention time [1, 3]: 14.2 min
- collision cross section [2, 3]: 158.35 Å²

Compound: CCCCOC(=O)c1ccccc1C(=O)OCc1ccccc1 [Benzylbutylphthalate]
- reversed-phase LC retention time [1, 3]: 16.3 min
- collision cross section [2, 3]: 178.47 Å²

Compound: Nc1ccc(Cl)cc1 [4-Chloroaniline]
- reversed-phase LC retention time [1, 3]: 8.59 min
- collision cross section [2, 3]: 114.68 Å²

Compound: CN(C)C(=O)Nc1ccccc1 [Fenuron]
- reversed-phase LC retention time [1, 3]: 8.82 min
- collision cross section [2, 3]: 132.76 Å²

Compound: CC1COc2c(N3CCN(C)CC3)c(F)cc3c(=O)c(C(=O)O)cn1c23 (stereo unspecified) [Ofloxacin]
- reversed-phase LC retention time [1, 3]: 7.93 min
- collision cross section [2, 3]: 182.54 Å²

Compound: O=C(/C=C/C=C/c1ccc2c(c1)OCO2)N1CCCCC1 [Piperine]
- reversed-phase LC retention time [1, 3]: 14.6 min
- collision cross section [2, 3]: 177.09 Å²

Compound: CCCCC(CC)CNCC(CC)CCCC (stereo unspecified) [Di(2-ethylhexyl)amine]
- reversed-phase LC retention time [1, 3]: 14.8 min
- collision cross section [2, 3]: 171.64 Å²

Compound: CCCCOC(=O)c1ccc(O)cc1 [Butyl 4-hydroxybenzoate]
- reversed-phase LC retention time [1, 4]: 14.2 min
- collision cross section [2, 4]: 147.76 Å²

Compound: CCC(=O)Nc1ccc(Cl)c(Cl)c1 [Propanil]
- reversed-phase LC retention time [1, 3]: 13.8 min
- reversed-phase LC retention time [1, 4]: 14.1 min
- collision cross section [2, 3]: 146.71 Å²
- collision cross section [2, 4]: 141.22 Å²

Compound: C#CCN1C(=O)COc2cc(F)c(N3C(=O)C4=C(CCCC4)C3=O)cc21 [Flumioxazin]
- reversed-phase LC retention time [1, 3]: 13.5 min
- collision cross section [2, 3]: 188.98 Å²

Compound: O=C(c1ccccc1)c1ccc(O)cc1O [2,4-Dihydroxybenzophenone]
- reversed-phase LC retention time [1, 4]: 11.7 min
- collision cross section [2, 4]: 146.26 Å²

Compound: CC(Oc1ccc(Oc2ncc(C(F)(F)F)cc2Cl)cc1)C(=O)O (stereo unspecified) [Haloxyfop-P]
- reversed-phase LC retention time [1, 3]: 15.5 min
- reversed-phase LC retention time [1, 4]: 14 min
- collision cross section [2, 3]: 181.48 Å²
- collision cross section [2, 4]: 190.86 Å²

Compound: CC1COC(Cn2cncn2)(c2ccc(Oc3ccc(Cl)cc3)cc2Cl)O1 (stereo unspecified) [Difenoconazole]
- reversed-phase LC retention time [1, 3]: 16.1 min
- collision cross section [2, 3]: 202.11 Å²

Compound: Cc1ccc(N)cc1Cl [3-Chloro-4-methylaniline]
- reversed-phase LC retention time [1, 3]: 12.2 min
- collision cross section [2, 3]: 148.73 Å²

Compound: COc1ccc2cc(C(C)C(=O)O)ccc2c1 (stereo unspecified) [Naproxen]
- reversed-phase LC retention time [1, 3]: 13.8 min
- collision cross section [2, 3]: 151.76 Å²

Compound: CN(C)CCCC1(c2ccc(F)cc2)OCc2cc(C#N)ccc21 (stereo unspecified) [Citalopram]
- reversed-phase LC retention time [1, 3]: 11.3 min
- collision cross section [2, 3]: 182.06 Å²

Compound: CN(C)C(=O)C(CCN1CCC(O)(c2ccc(Cl)cc2)CC1)(c1ccccc1)c1ccccc1 [Loperamide]
- reversed-phase LC retention time [1, 3]: 13.6 min
- collision cross section [2, 3]: 221.69 Å²

Compound: CC1=CC(=O)NS(=O)(=O)O1 [Acesulfame]
- reversed-phase LC retention time [1, 4]: 2.26 min
- collision cross section [2, 4]: 122.01 Å²

Compound: CC(C)N1C(=O)c2ccccc2NS1(=O)=O [Bentazone]
- reversed-phase LC retention time [1, 4]: 7.56 min
- collision cross section [2, 4]: 145.72 Å²

Compound: Cn1c(=O)c2c(ncn2C)n(C)c1=O [Caffeine]
- reversed-phase LC retention time [1, 3]: 7.7 min
- collision cross section [2, 3]: 139.07 Å²

Compound: O=S(=O)(O)C(F)(F)F [Trifluoromethanesulfonic acid]
- reversed-phase LC retention time [1, 4]: 1.37 min
- collision cross section [2, 4]: 108.15 Å²

Compound: CC1(C(=O)Nc2ccc(O)c(Cl)c2Cl)CCCCC1 [Fenhexamid]
- reversed-phase LC retention time [1, 3]: 14.8 min
- reversed-phase LC retention time [1, 4]: 14.6 min
- collision cross section [2, 3]: 166.46 Å²
- collision cross section [2, 4]: 172.09 Å²

Compound: CCC1(c2ccccc2)C(=O)NCNC1=O [Primidone]
- reversed-phase LC retention time [1, 3]: 9.29 min
- collision cross section [2, 3]: 148.13 Å²

Compound: CCN(CCCCOC(=O)c1ccc(OC)c(OC)c1)C(C)Cc1ccc(OC)cc1 (stereo unspecified) [Mebeverine]
- reversed-phase LC retention time [1, 3]: 11.9 min
- collision cross section [2, 3]: 202.99 Å²

Compound: C[C@]12C=CC(=O)C=C1CC[C@@H]1[C@@H]2C(=O)C[C@@]2(C)[C@H]1CC[C@]2(O)C(=O)CO [Prednisone]
- reversed-phase LC retention time [1, 3]: 11.9 min
- reversed-phase LC retention time [1, 4]: 15.2 min
- collision cross section [2, 3]: 185.97 Å²
- collision cross section [2, 4]: 184 Å²

Compound: COc1nc(NC(=O)NS(=O)(=O)c2ccccc2C(F)(F)F)nc(C(F)(F)F)n1 [Tritosulfuron]
- reversed-phase LC retention time [1, 3]: 13.7 min
- reversed-phase LC retention time [1, 4]: 11.8 min
- collision cross section [2, 3]: 186.88 Å²
- collision cross section [2, 4]: 184.96 Å²

Compound: CCC(C)C(=O)OC1CC(O)C=C2C=CC(C)C(CCC(O)CC(O)CC(=O)O)C21 (stereo unspecified) [Pravastatin]
- reversed-phase LC retention time [1, 4]: 12.1 min
- collision cross section [2, 4]: 203.46 Å²

Compound: CCCCC(=O)O[C@]1(C(=O)CO)[C@@H](C)C[C@H]2[C@@H]3CCC4=CC(=O)C=C[C@]4(C)[C@@]3(F)[C@@H](O)C[C@@]21C [Betamethasone-17-valerate]
- reversed-phase LC retention time [1, 3]: 15.5 min
- reversed-phase LC retention time [1, 4]: 16 min
- collision cross section [2, 3]: 216.68 Å²
- collision cross section [2, 4]: 216.5 Å²

Compound: CN(C)S(=O)(=O)c1ccc(N)cc1 [4-Amino-N,N-dimethylbenzenesulfonamide]
- reversed-phase LC retention time [1, 3]: 7.89 min
- reversed-phase LC retention time [1, 4]: 7.97 min
- collision cross section [2, 3]: 138.47 Å²
- collision cross section [2, 4]: 137.21 Å²

Compound: CC1CCN(CCCC(=O)c2ccc(F)cc2)CC1 [Melperon]
- reversed-phase LC retention time [1, 3]: 9.83 min
- collision cross section [2, 3]: 163.5 Å²

Compound: CCc1ccc(CCOc2ccc(CC3SC(=O)NC3=O)cc2)nc1 (stereo unspecified) [Pioglitazone]
- reversed-phase LC retention time [1, 3]: 11.1 min
- reversed-phase LC retention time [1, 4]: 13.3 min
- collision cross section [2, 3]: 179.07 Å²
- collision cross section [2, 4]: 176.43 Å²

Compound: O=C(O)C(F)(F)C(F)(F)C(F)(F)C(F)(F)C(F)(F)C(F)(F)C(F)(F)C(F)(F)C(F)(F)F [Perfluorodecanoic acid]
- reversed-phase LC retention time [1, 4]: 16 min
- collision cross section [2, 4]: 173.66 Å²

Compound: C[P+](c1ccccc1)(c1ccccc1)c1ccccc1 [Methyltriphenylphosphonium]
- reversed-phase LC retention time [1, 5]: 10.1 min
- collision cross section [2, 5]: 162.96 Å²

Compound: O=C(O)C(F)(F)C(F)(F)C(F)(F)C(F)(F)C(F)(F)C(F)(F)C(F)(F)C(F)(F)C(F)(F)C(F)(F)C(F)(F)C(F)(F)C(F)(F)F [Perfluorotetradecanoic acid]
- reversed-phase LC retention time [1, 4]: 17.6 min
- collision cross section [2, 4]: 209.23 Å²

Compound: Nc1nc(=O)n([C@@H]2CS[C@H](CO)O2)cc1F [Emtricitabine]
- reversed-phase LC retention time [1, 3]: 5.75 min
- collision cross section [2, 3]: 146.78 Å²

Compound: CC[n+]1ccn(C)c1 [1-Ethyl-3-methyl-imidazolium]
- reversed-phase LC retention time [1, 5]: 0.99 min
- collision cross section [2, 5]: 115.07 Å²

Compound: CC1(C)CC(N)CC(C)(CN)C1 (stereo unspecified) [Isophorone diamine]
- reversed-phase LC retention time [1, 3]: 1.84 min
- collision cross section [2, 3]: 141.08 Å²

Compound: CC(C)c1cc(C(C)(C)c2ccc(O)c(C(C)C)c2)ccc1O [Bisphenol G]
- reversed-phase LC retention time [1, 4]: 16.8 min
- collision cross section [2, 4]: 187.67 Å²

Compound: CC(NC(C)(C)C)C(=O)c1cccc(Cl)c1 (stereo unspecified) [Bupropion]
- reversed-phase LC retention time [1, 3]: 10.3 min
- collision cross section [2, 3]: 158.6 Å²

Compound: O=C(CC(C(=O)OC1CCCCC1)S(=O)(=O)O)OC1CCCCC1 (stereo unspecified) [Dicyclohexyl sulfosuccinate]
- reversed-phase LC retention time [1, 3]: 14.2 min
- reversed-phase LC retention time [1, 4]: 14.2 min
- collision cross section [2, 3]: 201.58 Å²
- collision cross section [2, 4]: 189.02 Å²

Compound: CCC(C)n1c(=O)[nH]c(C)c(Br)c1=O (stereo unspecified) [Bromacil]
- reversed-phase LC retention time [1, 3]: 11.4 min
- collision cross section [2, 3]: 144.76 Å²

Compound: CCCCCCCCCCCCCCCC[n+]1ccccc1 [Hexadecylpyridinium]
- reversed-phase LC retention time [1, 5]: 17.5 min
- collision cross section [2, 5]: 197.5 Å²

Compound: CCOP(=S)(OCC)Oc1cc(C)nc(C(C)C)n1 [Diazinon]
- reversed-phase LC retention time [1, 3]: 15.6 min
- collision cross section [2, 3]: 172.11 Å²

Compound: CC(C)N1C(=O)c2cc(O)ccc2NS1(=O)=O [6-Hydroxybentazone]
- reversed-phase LC retention time [1, 4]: 5.24 min
- collision cross section [2, 4]: 149.95 Å²

Compound: C[C@H]1CCCC(=O)CCC/C=C/c2cc(O)cc(O)c2C(=O)O1 [Zearalenone]
- reversed-phase LC retention time [1, 4]: 14.4 min
- collision cross section [2, 4]: 178.16 Å²

Compound: O=C(O)C(F)(F)C(F)(F)C(F)(F)C(F)(F)C(F)(F)F [Perfluorohexanoic acid]
- reversed-phase LC retention time [1, 4]: 12.6 min
- collision cross section [2, 4]: 138.14 Å²

Compound: CC(=O)OCC(=O)[C@@]12OC3(CCCC3)O[C@@H]1C[C@H]1[C@@H]3CCC4=CC(=O)C=C[C@]4(C)[C@@]3(F)[C@@H](O)C[C@@]12C [Amcinonide]
- reversed-phase LC retention time [1, 3]: 15.6 min
- collision cross section [2, 3]: 217.58 Å²

Compound: O=C1C=C(N(Cc2ccc(Cl)nc2)CC(F)F)CO1 [Flupyradifurone]
- reversed-phase LC retention time [1, 3]: 9.35 min
- reversed-phase LC retention time [1, 4]: 9.46 min
- collision cross section [2, 3]: 164.36 Å²
- collision cross section [2, 4]: 163.3 Å²

Compound: CN1CCN(C)C1=O [1,3-Dimethyl-2-imidazolidinone]
- reversed-phase LC retention time [1, 3]: 6.07 min
- collision cross section [2, 3]: 116.95 Å²

Compound: COC(=O)N(C(=O)N1CO[C@@]2(C(=O)OC)Cc3cc(Cl)ccc3C2=N1)c1ccc(OC(F)(F)F)cc1 [Indoxacarb]
- reversed-phase LC retention time [1, 3]: 16.2 min
- collision cross section [2, 3]: 206.73 Å²

Compound: CC(C)CCCCOC(=O)c1ccccc1C(=O)OCCCCC(C)C [Diisoheptyl phthalate]
- reversed-phase LC retention time [1, 3]: 18.6 min
- collision cross section [2, 3]: 204.46 Å²

Compound: CN(Cc1cnc2nc(N)nc(N)c2n1)c1ccc(C(=O)N[C@@H](CCC(=O)O)C(=O)O)cc1 [Methotrexate]
- reversed-phase LC retention time [1, 3]: 7.82 min
- collision cross section [2, 3]: 197.21 Å²

Compound: O=C1NC(=O)C(c2ccccc2)(c2ccccc2)N1 [Phenytoin]
- reversed-phase LC retention time [1, 3]: 11.9 min
- collision cross section [2, 3]: 162.42 Å²

Compound: O=C(c1ccc(O)cc1O)c1ccc(O)cc1O [2,2',4,4'-Tetrahydroxybenzophenone]
- reversed-phase LC retention time [1, 4]: 8.54 min
- collision cross section [2, 4]: 151.01 Å²

Compound: Nc1ccc(Sc2ccc(N)cc2)cc1 [4,4'-Thiodianiline]
- reversed-phase LC retention time [1, 3]: 9.19 min
- collision cross section [2, 3]: 164.43 Å²

Compound: C[C@H]1C[C@H]2[C@@H]3CCC4=CC(=O)C=C[C@]4(C)[C@@]3(F)[C@@H](O)C[C@]2(C)[C@@]1(O)C(=O)CCl [Clobetasol]
- reversed-phase LC retention time [1, 4]: 14.4 min
- collision cross section [2, 4]: 194.82 Å²

Compound: Cc1cccc(C)c1N(Cn1cccn1)C(=O)CS(=O)(=O)O [Metazachlor ESA]
- reversed-phase LC retention time [1, 3]: 9.52 min
- reversed-phase LC retention time [1, 4]: 9.35 min
- collision cross section [2, 3]: 168.61 Å²
- collision cross section [2, 4]: 168.78 Å²

Compound: CCCCCCCCCCCCCCCCCCN [1-Octadecylamine]
- reversed-phase LC retention time [1, 3]: 18.4 min
- collision cross section [2, 3]: 184.09 Å²

Compound: CNC(=O)CSP(=O)(OC)OC [Omethoate]
- reversed-phase LC retention time [1, 3]: 6.04 min
- collision cross section [2, 3]: 135.65 Å²

Compound: COc1cc(O)c(C(=O)c2ccccc2)cc1S(=O)(=O)O [Benzophenone-4]
- reversed-phase LC retention time [1, 4]: 9.83 min
- collision cross section [2, 4]: 168.24 Å²

Compound: CCN(CC)CC(=O)Nc1c(C)cccc1C [Lidocaine]
- reversed-phase LC retention time [1, 3]: 8.29 min
- collision cross section [2, 3]: 156.14 Å²

Compound: Oc1c(Cl)c(Cl)c(Cl)c(Cl)c1Cl [Pentachlorophenol]
- reversed-phase LC retention time [1, 4]: 13.8 min
- collision cross section [2, 4]: 137.44 Å²

— the supplement of paper PMC12613149
